Experimental data from patent publication US9957282B2, “Crystalline forms of quinolone analogs and their salts” (Senhwa Biosciences, Inc., priority 2015, dated 2018).

How the values were obtained:
[1] = Aqueous solubility of acid salts of Compound I; type: physicochemical; details: water, 42 °C, thermodynamic from solid, approximately 50 mg salt in 0.25 mL water (x2, added portion wise), read-out: Aqueous Solubility (Calculated)
[2] = Solubility of polymorph forms in organic solvents; type: physicochemical
Procedure: Solubility of polymorphs A, C, E, and G of Compound I (free base) were determined by suspending approximately 25 mg of each polymorph in organic solvents and the resulting mixtures were stirred at room temperature or elevated temperatures for 1 h. A sample was filtered and the concentration was determined by HPLC. The remaining suspension was evaporated and the solid was analyzed by XRPD to confirm that the polymorph form in the suspension was still the same polymorph form used for the experiment.

solubility at 3 days [1] | Relative stability of polymorph, inferred from solubility ([2]; compared with polymorphs C, E, G) | Solubility of polymorph relative to polymorphs A, C, E, G ([2]; methanol and THF (FIG. 20), room temperature or elevated temperatures, stirred 1 h) | Structure (SMILES)
> 200 mg/mL |  |  | Cc1cnc(CNC(=O)c2c(=O)c3ccc(N4CCCN(C)CC4)nc3n3c2sc2ccccc23)cn1
 | most stable | lowest solubility | Cc1cnc(CNC(=O)c2c(=O)c3ccc(N4CCCN(C)CC4)nc3n3c2sc2ccccc23)cn1 [Polymorph A]
